Assay results as given in patent publication US5017557A, “Treatment of infertility with somatotrophin releasing factor” (Industria Farmaceutica Serono S.p.A., priority 1987, dated 1991).
“Also recorded” adds a separate entry of the source. No end group written: not given here.

Experiments:
[1] = test system: follicle in maturative growth; experiment: echographic monitoring of follicle-genesis (volume/diameter of the follicle in maturative growth) in women; assay type: in vivo, human (women)
Experimental: In the clinical trials reported below, GRF-29 was used in the form of lyophilized ampoules containing 100 or 150 micrograms (mcg) of GRF and 10 milligrams (mg) of mannitol as excipient. The lyophilized substance, dissolved in 2 ml of physiologic saline, was administered by the intravenous route.
In a clinical study carried out in conformity with the present invention women, both with normal follicle-genesis (as control) and follicle-genesisdeficiency were treated.
The study consisted in echographic and hormonal monitoring of follicle-genesis during which the volume of the follicle in maturative growth and the plasma levels of 17-beta estradiol and 17-alpha OH progesterone were recorded.
In the controls with normal follicle-genesis, 2 monitorings of the follicle-genesis were carried out in accordance with the above mentioned procedures: the first verified the basal situation and the second was under administration of GRF-29 at the dosage of 100 or 150 mcg/day i.v. from the 1st to the 7th day of the cycle.
In patients with follicle-genesis deficiency, monitorings of the follicle-genesis were carried out: without any medicinal administration (as control); under administration of GRF-29 at the dosage of 100 or 150 mcg/day i.v. from the 1st to the 7th day of the cycle; under administration of FSH (METRODIN® at the dosage of 75 or 150 I.U./day i.m. for 7 days; under the combined administration of FSH+GRF at the above dosage.

spermatozoa = experiment: treatment of male infertility: seminal parameters; assay type: in vivo, human (patients); settings: oligospermia or azoospermia; 5 mcg/kg s.c. 3 times a week for three months; controls at 45 days and 3 months
Experimental: Patients suffering spermatogenesis deficiences of various entity with oligospermia or azoospermia, selected according to the criteria of the protocol, were treated for a period of three months with GRF-29 at the dosage of 5 mcg/kg s.c. 3 times a week.
The first control was carried out after 45 days from commencement of therapy, and the second control after 3 months.

[2] = test system: anti-GRF obtained in the rabbit (Amersham) against human GRF-44; settings: rabbit anti-serum against human GRF-44 (Amersham); cited from earlier work
Sertoli cells = experiment: GRF binding to isolated Sertoli cells; set-up: species or system rat
Text: Sertoli cells were isolated from the testicles of 14 day old rats, according to the techniques already decribed (A. Fabbri, et al.--Opiate receptors are present in the rat testis: Identification and localization on Sertoli cells. Endocrinology 117: 2544-2546, 1985). Briefly, the procedure consisted in the separation of the tubular compartment from the Leydig cells by means of enzymatic dispersion with collagenase and subsequent treatment of the tubules with trypsin and collagenase. The separated cells were applied to 48 well Costar plates at the concentration of approximately 100,000 cells per well. The cells were allowed to adhere to the bottom of the wells for 24 hours in a metabolic incubator at 34° C., in 95% O2 /5% CO2. The cells were then washed and incubated in TC 199 10 mM TRIS medium in the presence of iodine labelled GRF-44 at the concentration of 10^-11 M for 60 minutes at 4° C. in the presence or absence of 10^-6 M cold (unlabelled) human GRF-44. Then the cells were washed 3 times with PBS+0.5% BSA at 4° C.; the radio-activity bound to the cells was then solubilized with 0.1N NaOH and read in a gammacounter.

[3] = test system: serum levels of HGH, Sm-C, prolactin, LH, FSH; settings: intravenous administration, normal subjects during the menstrual cycle; cited from earlier work

GRF-29: biologically active fragment of Somatotrophin releasing factor; lyophilized ampoules of 100 or 150 mcg with 10 mg mannitol (YADAIFTNSYRKVLGQLSARKLLQDIMSR; ends and bridges not checked; UniProt P01286 32-60, looked up, fragment)
observation of the cycle (follicular activation, dominance, ovulation, menstrual flow) ([1]; Case 1, normal follicle-genesis, GRF-29 100 mcg/day i.v.): presence of follicular activation and evidence of a dominant follicle between the 13th and the 14th day of the cycle, with ovulation between the 15th and 16th day | observation of the cycle (follicular activation, dominance, ovulation, menstrual flow) ([1]; Case 3, patient, GRF-29 150 mcg/day i.v.): presence of follicular activation, dominance and dehiscence | observation of the cycle (follicular activation, dominance, ovulation, menstrual flow) ([1]; Case 4, patient, GRF-29 100 mcg/day i.v.): absence of ovulation but follicle-genesis was activated; also recorded: Menstrual flow occurred spontaneously on the 33rd day | observation of the cycle (follicular activation, dominance, ovulation, menstrual flow) ([1]; Case 6, patient, GRF-29 150 mcg/day i.v. day 1-7): good ovarian activation was observed, followed by the growth of two follicles (within a micropolycistic ovary, as stated above), which presented an involution around the 17th day of the cycle | observation of the cycle (follicular activation, dominance, ovulation, menstrual flow) ([1]; Case 7, patient, GRF-29 150 mcg/day i.v. day 1-7): presence of echographic notes of ovarian activation, but absence of follicular dominance | overall effect on follicle growth and ovulation ([1]; administration during the first phase of the cycle, all cases): facilitates follicle growth and anticipates, or even induces, ovulation (dehiscence) | seminal parameters (number of spermatozoa, motility) (spermatozoa): improvement of the seminal parameters, and especially an increase in the number of spermatozoa and their motility | Cross-reactivity [2]: 100%

GRF: Somatotrophin releasing factor; measured as immunoreactivity by RIA, binding done with iodine labelled human GRF-44
specific binding of GRF to Sertoli cells (Sertoli cells; iodine labelled GRF-44 10^-11 M, 60 minutes at 4° C., with or without 10^-6 M cold human GRF-44): 2.5 fmoles of peptide/70 mcg of protein | specific binding of GRF to Sertoli cells (Sertoli cells; recalculated per mg of protein): about 40 fmoles/mg of protein | effect on serum hormone levels [3]: produces an increase in serum levels of HGH and Sm-C but not of prolactin, LH or FSH
